The numbers were not newly measured in patent US20060079481A1, “Method of treating/preventing mucositis” (priority 2004, published 2006), which cites them from elsewhere.

Data set [1] deals with oral mucositis. As to conditions: for risk of indirect mucotoxicity from bacteria and fungi: prophylactic use; for risk of indirect mucotoxicity from bacteria and fungi / effect in oral mucositis: literature reports.
In data set [2] the test system is oral mucositis. The conditions noted are these: Dodd et al. 1996.

Consider Sucralfate, for which the “benefit in oral mucositis” value in the data set on oral mucositis [1] (patients receiving a cisplatin/fluorouracil regimen for various solid tumors (Pfeiffer et al. 1990)) is recorded as “modest benefit”.

In the case of `C[C@@H]1[C@H](O)[C@@H](C)/C=C/C=C/CC/C=C/C=C/C=C/C=C/C(O[C@H]2O[C@H](C)[C@@H](O)[C@H](N)[C@@H]2O)CC2O[C@](O)(CC(O)C(O)CCC(O)CC(O)CC(O)CC(=O)O[C@H]1C)CC(O)C2C(=O)O` (stereo partly drawn) [nystatin], the “risk of indirect mucotoxicity from bacteria and fungi” value (“risk of indirect mucotoxicity” below) in the data set on oral mucositis [1] is “reduce the risk”.

Take `Oc1ncnc2[nH]ncc12` [allopurinol]: in the data set on oral mucositis [1], the “effect in oral mucositis” value is listed as “failed to show effect”.

Regarding `O=c1[nH]cc(F)c(=O)[nH]1` [5-fluorouracil], in the data set on oral mucositis [2], the “prevalence of chemotherapy-induced oral mucositis” value is 75%.

In the case of `CC(=O)CCCCn1c(=O)c2c(ncn2C)n(C)c1=O` [pentoxifylline], the “effect in oral mucositis” value in the data set on oral mucositis [1] was “failed to show effect”.

Consider `CCCCC[C@H](O)/C=C/[C@H]1[C@H](O)CC(=O)[C@@H]1C/C=C\CCCC(=O)O` [prostaglandin E2], for which the “effect in oral mucositis” value in the data set with oral mucositis [1] was “failed to show effect”.

Regarding `Clc1ccccc1C(c1ccccc1)(c1ccccc1)n1ccnc1` [clotrimazole], in the data set on oral mucositis [1], the “risk of indirect mucotoxicity” value was “reduce the risk”.

On to `[H]/N=C(\N/C(=N/[H])NCCCCCCNC(=N)NC(=N)Nc1ccc(Cl)cc1)Nc1ccc(Cl)cc1` [chlorhexidine], for which the “risk of indirect mucotoxicity” value with oral mucositis [1] is listed as “reduce the risk”.

B1: filgrastim: a granulocyte colony-stimulating factor (protein, chains of the INN, looked up)
chain: MTPLGPASSLPQSFLLKCLEQVRKIQGDGAALQEKLCATYKLCHPEELVLLGHSLGIPWAPLSSCPSQALQLAGCLSQLHSGLFLYQGLLQALEGISPELGPTLDTLQLDVADFATTIWQQMEELGMAPALQPTQGAMPAFASAFQRRAGGVLVASHLQSFLEVSYRVLRHLAQP
Turning to B1, in the data set on oral mucositis [1], the “effect in oral mucositis” value is reported as “failed to show effect”.
